Test results as given in patent US20240277829A1, “HIV-1 VACCINATION AND SAMT-247 MICROBICIDE TO PREVENT HIV-1 INFECTION” (priority 2021, published 2024).

Tests used:
[1] = system: mucosal Th1 and Th2 cells; test: Frequencies and cytokine levels of macaque rectal mucosal T cells following SAMT-247 and PMA stimulation; assay type: cell-based; details: following PMA stimulation
From the text: Additionally, rectal tissue from 9 macaques was used for an in vitro study. The age-matched macaques from this separate study (P204) included 4 animals vaccinated against HIV and 5 naïve animals, all challenged with SHIV. Rectal tissue was obtained post challenge from 7 infected and 2 uninfected animals for the P204 study analysis. Extra cells were available from that collection and were used here for the in vitro study.
Frequencies and cytokine levels of macaque rectal mucosal NK cells and T cells following SAMT-247 and PMA stimulation. NK/ILC and T cell frequencies and cytokine levels were measured in macaque rectal mucosa. Freshly collected rectal biopsies were processed to single cells and cultured in R10 in the presence/or absence of SAMT-247 and/or PMA for 12 hours. Subsequently, cells were stained for live cells with Live/Dead Blue dye (cat. #L34962, 0.5 μl) from Thermofisher; followed by surface staining with the following: BUV737 anti-CD3 (SP34-2; cat. #741872, 5 μl), BV711 anti-CD4 (L200; cat. #563913, 5 μl), BV650 anti-NKp44 (P44-8; cat. #744302, 5 μl), Alexa700 anti-CD20 (2H7; cat. #560631, 5 μl), BV786 anti-CD45 (D058-1283; cat. #563861, 5 μl) from BD Biosciences; APC-H7 anti-CD11b (ICRF44; cat. #47-0118-42, 5 μl), PE-Cy5 anti-CD95 (ICRF44; cat. #15-0959-42, 5 μl) from eBioscience; BV570 anti-CD8 (RPA-T8; cat. #301038, 5 μl), BV605 anti-CCR6 (G034E3; cat. #353420, 5 μl), APC anti-CXCR3 (G025H7; cat. #353708, 5 μl), from Biolegend and PE-Cy7 anti-NKG2A (Z199; cat. #B10246, 5 μl) from Beckman coulter for 30 minutes at room temperature. This was followed by permeabilization with a FOX3-transcription buffer set (cat. #00-5523-00) from eBioscience according to the manufacture's recommendation and subsequently intracellular staining with the following: BV750 anti-TNF-α (MAB11; cat. #566359, 5 μl), BUV395 anti-IFN-γ (B27; cat. #563563, 5 μl), BV510 anti-GranB (GB11; cat. #563388, 5 μl), BV421 anti-IL-10 (JES3-9D7; cat. #564053, 5 μl) from BD Biosciences; PE-Cy5.5 anti-IL-17 (BL168; cat. #512314, 5 μl) from Biolegend; and FITC anti-Perforin (pf-344; cat. #3465-7, 5 μl) from MABTECH for 30 minutes at room temperature. Flow cytometry acquisitions were performed on a FACSymphony A5 and examined using FACSDiva software (BD Biosciences).

[2] = system: CD14^+ monocytes; test: Zinc chelation: macaque blood monocytes, SAMT-247 and/or gp120 peptides with or without TPEN; assay type: cell-based
Procedure: Zinc chelation: The frequencies and cytokine levels of NK cells, monocytes and T cells were measured in macaque blood. Cryopreserved PBMCs were thawed and cultured in R10 in the presence/or absence of SAMT-247 and/or gp120 peptides for 12 hours. Cells were incubated with or without Zinc chelator TPEN (cat. #P4413-100 MG, 5 μM) for 12 h. Subsequently, cells were stained for live cells with Live/Dead Blue dye (cat. #L34962, 0.5 μl) from Thermofisher; followed by surface staining with the following: Alexa 700 anti-CD3 (SP34-2; cat. #557917, 5 μl), BV711 anti-CD4 (L200; cat. #563913, 5 μl), BB700 anti-CD8 (RPA-T8; cat. #566452, 5 μl), BUV737 anti-CD20 (2H7; cat. #612848, 5 μl), PE anti-CD45 (D058-1283; cat. #552833, 5 μl), BV786 anti-CCR5 (3A9; cat. #565001, 5 μl), BV496 anti-CD16 (3G8; cat. #612944, 5 μl), BUV661 anti-HLA-DR (G46-6; cat. #612980, 5 μl), BUV805 anti-CD14 (M5E2; cat. #565779, 5 μl) from BD Biosciences; APC-H7 anti-CD11b (ICRF44; cat. #47-0118-42, 5 μl), PE-Cy5 anti-CD95 (ICRF44; cat. #15-0959-42, 5 μl) from eBioscience; APC anti-α4β7, provided by the NIH Nonhuman Primate Reagent Resource (R24 OD010976, and NIAID contract HHSN272201300031C); BV605 anti-CCR6 (G034E3; cat. #353420, 5 μl), BV650 anti-CXCR3 (G025H7; cat. #353730, 5 μl), from Biolegend and PE-Cy7 anti-NKG2A (Z199; cat. #B10246, 5 μl) from Beckman coulter for 30 minutes at room temperature. This was followed by permeabilization with a FOX3-transcription buffer set (cat. #00-5523-00) from eBioscience according to the manufacture's recommendation and subsequently intracellular staining with the following: BV750 anti-TNF-α (MAB11; cat. #566359, 5 μl), BUV395 anti-IFN-γ (B27; cat. #563563, 5 μl), BV510 anti-GranB (GB11; cat. #563388, 5 μl), BV421 anti-IL-10 (JES3-9D7; cat. #564053, 5 μl), PE-CF594 anti-Ki67 (B56; cat. #567120, 5 μl) from BD Biosciences and FITC anti-Perforin (pf-344; cat. #3465-7, 5 μl) from MABTECH for 30 minutes at room temperature. Flow cytometry acquisitions were performed on a FACSYMPHONY™ A5 and examined using FACSDIVA™ software (BD Biosciences).

[3] = system: SIVmac251; details: cited from earlier work

## CC(=O)Sc1ccccc1C(=O)NCCC(N)=O [SAMT-247]
[1]
  IL-10 production in mucosal Th1 cells: increase
  TNF-α production in mucosal Th1 and Th2 cells: significant decrease
[2]; Monocytes unstimulated or +gp120 peptides, * Zinc dependence
  Cytokine: >IL-10 *
[2]; SAMT-247 alone or together with gp120 peptides
  IL-10 expression in CD14^+ monocytes: increased
[3]; SAMT-247 alone 3 hours prior to each challenge, animals mock immunized with empty Ad vector and alum (Helmold Hait et al. 2020)
  effect in the SIVmac251 model: protective effect
[3]; gel given four hours before challenge exposure (Helmold Hait et al. 2020)
  risk of SIVmac251 acquisition: unable to decrease
